Test results published in US20230346827A1 (priority 2020, published 2023).
Marks after values point to notes of the source that are not given here.

What was measured:
[1] = system: rats subjected to sTBI; assay: sTBI rats, LMW-DS 15 mg/kg s.c.: HPLC of brain free amino acids (Example 3); assay type: in vivo, rat
[2] = system: human PBMC; assay: Stimulated IL-6 release from human PBMC (ELISA); assay type: cell-based; details: 24 h
Protocol: Peripheral blood mononuclear cells (PBMC) were isolated from healthy donors through Ficoll-Paque PLUS (GE Healthcare; 11778538) density centrifugation. PBMC were cultured at 2×10^5 cells/well in the absence (unstimulated PBS vehicle controls) or presence of stimulation (LPS, peptidoglycan, pokeweed mitogen, PHA-L, CpG + IL-15, or Cytostim) in the absence (vehicle) or presence of LMW-DS (Tikomed AB, Viken, Sweden, WO 2016/076780) at three concentrations; 60 µg/ml, 200 µg/ml and 600 µg/ml for 24 hours at 37° C., 5% CO2. Following centrifugation, cell culture supernatants were removed and stored at -20° C. awaiting analysis for IL-6 by ELISA. Levels of IL-6 were quantified in the supernatant by ELISA (R&D systems; DY206) according to manufacturer’s instructions.

[3] = system: ALS patients; assay: Blood myoglobin, creatine kinase and HGF in ALS patients, dextran sulfate 1 mg/kg s.c. weekly for five weeks (Example 15); assay type: in vivo, human; parameters: circulating HGF, peak: unit not given here
Protocol: A clinical trial in the form of a Phase IIa, single-center, open label, single-arm study where the safety, tolerability and possible efficacy of subcutaneously administered dextran sulfate was evaluated in patients with ALS of intermediate progression rate. The clinical trial was conducted at the Sahlgrenska University Hospital, Gothenburg, Sweden and was overseen and approved by the Ethics Committee of the University of Gothenburg and by the Swedish Medical Products Agency.
Dextran sulfate (Tikomed AB, Viken, Sweden, WO 2016/076780) was administered at 1 mg/kg by […] subcutaneous injection once a week for five weeks to 13 human patients suffering from ALS.
Blood samples were drawn at defined study intervals by a venous catheter into vacutainer tubes. Laboratory analyses of blood plasma were performed immediately after collection by the Clinical Chemistry Laboratory at the Sahlgrenska University Hospital.

[4] = biological target: oligomeric amyloid-β / PrP^c interaction (Homo sapiens, UniProt P04156); assay type: binding
[5] = Acute phase 1: drug 30 min, sacrifice 2 d post-TBI
[6] = Acute phase 2: drug 30 min, sacrifice 7 d post-TBI
[7] = Chronic phase: drug 3 d, sacrifice 7 d post-TBI

For sodium salt of dextran sulfate [LMW-DS], the ALA [1, 5] was 0.50±0.12^a µmol/g (w.w.), the ARG [1, 5] was 0.13±0.02^b,d µmol/g (w.w.) and the ASN [1, 5] was 0.12±0.02^i µmol/g (w.w.). The ASP [1, 5] was 2.40±0.56^d,i µmol/g (w.w.), the CITR [1, 5] was 0.018 ± 0.004 µmol/g (w.w.) and the GABA [1, 5] was 1.43±0.25^a µmol/g (w.w.). The GLN [1, 5] was 4.78±1.09^a µmol/g (w.w.), the GLU [1, 5] was 9.81±1.66^i µmol/g (w.w.) and the GLY [1, 5] was 0.83±0.25^a,c µmol/g (w.w.). The HIS [1, 5] was 0.068±0.015^b µmol/g (w.w.), the L-Cystat [1, 5] was 0.185±0.031^b,c,i µmol/g (w.w.) and the MET [1, 5] was 0.016±0.005^d,j µmol/g (w.w.). For the same substance, the SAH [1, 5] was 0.033±0.008^b,c,j µmol/g (w.w.), the SER [1, 5] was 0.88±0.25^a µmol/g (w.w.) and the TAU [1, 5] was 4.86±00.85^b µmol/g (w.w.). The THR [1, 5] was 0.92±0.29^a µmol/g (w.w.), the TYR [1, 5] was 0.15 ± 0.03 µmol/g (w.w.) and the VAL [1, 5] was 0.042 ± 0.011 µmol/g (w.w.). The ALA [1, 6] was 0.52±0.24^a,e µmol/g (w.w.), the ARG [1, 6] was 0.16 ± 0.03 µmol/g (w.w.) and the ASN [1, 6] was 0.13±0.03^i µmol/g (w.w.). The ASP [1, 6] was 2.94±0.98^f,j µmol/g (w.w.), the CITR [1, 6] was 0.018 ± 0.008 µmol/g (w.w.) and the GABA [1, 6] was 1.60±0.24^a µmol/g (w.w.). For the same substance, the GLN [1, 6] was 3.66 ± 0.41 µmol/g (w.w.), the GLU [1, 6] was 9.93±1.56^e,i µmol/g (w.w.) and the GLY [1, 6] was 0.71±0.16^f,i µmol/g (w.w.). For the same substance, the HIS [1, 6] was 0.055 ± 0.019 µmol/g (w.w.), the L-Cystat [1, 6] was 0.173±0.038^b,f,i µmol/g (w.w.) and the MET [1, 6] was 0.022±0.006^b,e,i µmol/g (w.w.). For the same substance, the SAH [1, 6] was 0.026±0.010^f,i µmol/g (w.w.), the SER [1, 6] was 0.71±0.28^b µmol/g (w.w.) and the TAU [1, 6] was 3.80 ± 1.19 µmol/g (w.w.). For the same substance, the THR [1, 6] was 0.66 ± 0.23 µmol/g (w.w.), the TYR [1, 6] was 0.172±0.046^b,f µmol/g (w.w.) and the VAL [1, 6] was 0.057 ± 0.017 µmol/g (w.w.). For the same substance, the ALA [1, 7] was 0.57±0.28^a,e µmol/g (w.w.), the ARG [1, 7] was 0.14 ± 0.02 µmol/g (w.w.) and the ASN [1, 7] was 0.18±0.02^a µmol/g (w.w.). For the same substance, the ASP [1, 7] was 4.46±0.70^a,f µmol/g (w.w.), the CITR [1, 7] was 0.020 ± 0.006 µmol/g (w.w.) and the GABA [1, 7] was 1.85±0.65^a µmol/g (w.w.). For the same substance, the GLN [1, 7] was 3.98 ± 0.34 µmol/g (w.w.), the GLU [1, 7] was 13.58±1.28^a µmol/g (w.w.) and the GLY [1, 7] was 1.05±0.13^a,f µmol/g (w.w.). The HIS [1, 7] was 0.047 ± 0.021 µmol/g (w.w.), the L-Cystat [1, 7] was 0.26±0.05^a,f µmol/g (w.w.) and the MET [1, 7] was 0.009±0.004^b µmol/g (w.w.). The SAH [1, 7] was 0.050±0.013^a µmol/g (w.w.), the SER [1, 7] was 0.93±0.27^a,e µmol/g (w.w.) and the TAU [1, 7] was 4.49±0.43^a µmol/g (w.w.). The THR [1, 7] was 0.75±0.24^a,e µmol/g (w.w.), the TYR [1, 7] was 0.21±0.05^f µmol/g (w.w.) and the VAL [1, 7] was 0.040±0.016^b µmol/g (w.w.). For the same substance, the glutamate excitotoxicity marker ([1]; LMW-DS injected at 3 days after sTBI) was “no efficacy”, the “increase in glutamate (GLU) induced by sTBI” value ([1]; drug administered early post-injury (30 min following sTBI)) was “remarkable inhibition” and the IL-6 release ([2]; CpG 0.2 µM + IL-15, LMW-DS 60-600 µg/ml) was “not generally impacted”. For the same substance, the IL-6 release ([2]; Cytostim 10 µl/ml, LMW-DS 60-600 µg/ml) was “not generally impacted”, the IL-6 release ([2]; LPS 0.01 ng/ml, LMW-DS 60, 200, 600 µg/ml) was “concentration dependent and statistically significant reduction” and the IL-6 release ([2]; PHA-L 1.0 µg/ml, LMW-DS 60-600 µg/ml) was “inhibited significantly in a concentration-dependent manner”. For the same substance, the IL-6 release ([2]; higher concentration of CpG (1.0 µM) + IL-15, LMW-DS 60-600 µg/ml) was “no general impact”, the IL-6 release ([2]; higher concentration of Cytostim (30 µl/ml), LMW-DS 60-600 µg/ml) was “no general impact” and the IL-6 release ([2]; peptidoglycan 30 ng/ml, LMW-DS 60-600 µg/ml) was “little evidence”. For the same substance, the IL-6 release ([2]; pokeweed mitogen 1.0 µg/ml, LMW-DS 60-600 µg/ml) was “not impacted generally”, the “reduction in creatine kinase levels” value ([3]; after 4 weeks of treatment) was 13.3% and the “serum creatine kinase levels” value ([3]; after 4 weeks of treatment) was 6.2 ± 5.08 µkat/L. For the same substance, the serum myoglobin levels ([3]; after 4 weeks of treatment) was 103.69 ± 72.16 µg/L, the “reduction in myoglobin levels” value ([3]; after 4 weeks of treatment vs Day 1) was 30% and the “circulating HGF, peak” value ([3]; peak at 2.5 hours after injection) was 37863 ± 14235. For the same substance, the “Competable binding (%)” value [4] was 85±4%, the Hill coefficient [4] was 1.00±0.21 and the “IC50” value [4] was 0.42 ± 0.16 µg/mL.
